Measurements published in patent publication US11160798B2, “Neuroprotective CB2 receptor agonists” (THE CLEVELAND CLINIC FOUNDATION, priority 2012, dated 2021).

How the values were obtained:
CA1 neurons = test: Evoked EPSCs (basal glutamatergic strength) in hippocampal CA1 slices, whole-cell patch clamp; assay type: in vivo, rat
Description: (§1) Animals were divided into several groups (40-50 rats per group). The Aβ1-40 group received bilateral intracerebral microinjection of Aβ1-40 fibrils once and saline intraperitoneally (i.p.) daily for 14 days. The Aβ1-40+MDA7 group received bilateral intracerebral microinjection of Aβ1-40 fibrils once and 15 mg/kg MDA7 i.p. daily for 14 days. Other cohorts received smaller doses of MDA7 (5 mg/kg or 1.5 mg/kg) i.p. daily for 14 days to determine the dose-response characteristics for MDA7. In other groups, AM630 (a CB2 antagonist) 5 mg/kg i.p. was administered daily for 14 days either alone (Aβ1-40+AM630 group) or 15 min prior to MDA7 (15 mg/kg i.p.) administration (Aβ1-40+MDA7+AM630 group) to rats injected with β1-40 fibrils. […]
Whole-cell patch clamp recordings in hippocampal slices. […] The series resistance was optimally compensated by ≥70% and constantly monitored throughout the experiments. […] Excitatory postsynaptic currents (EPSCs) were recorded in the CA1 area in the presence of GABAA antagonist bicuculline (30 μM). The evoked EPSCs were filtered at 2 kHz, digitized at 10 kHz, and acquired and analyzed using Axograph X software. The amplitude of EPSCs was monitored for a baseline period of at least 15 min. […]

IL-1β = IL-1β protein expression in hippocampal CA1 area (immunoblotting); assay type: in vivo, rat; conditions: Aβ1-40-injected rats, 15 mg/kg i.p. daily for 14 days
Description: as §1
Protein extraction and immunoblotting. […] Protein concentrations were determined by using the Bio-Rad (Hercules, Calif.) protein assay kit.
The samples were treated with SDS sample buffer at 95° C. for 5 min, loaded on a 7.5% SDS-polyacrylamide, gel, and blotted to a nitrocellulose membrane. […] The immunoreactivity was detected using enhanced chemiluminescence (ECL Advance Kit; Amersham Biosciences). The intensity of the bands was captured digitally and analyzed quantitatively with ImageJ software. […]

CC1(Cc2ccccc2)COc2cc(C(=O)N3CCCCC3)ccc21 (stereo not drawn) [MDA7, 3-benzyl-3-methyl-2,3-dihydrobenzofuran-6-carboxylic acid-piperidine amide]
amplitude of evoked EPSCs in CA1 neurons (CA1 neurons; Aβ1-40-injected rats, 15 mg/kg i.p. for 14 days, all three stimulus intensities): restored
basal glutamatergic strength, treatment alone (CA1 neurons; MDA7 group (no Aβ1-40) vs control group): not different
IL-1β protein expression (immunoblot) (IL-1β): significantly attenuated
